The assay has as its target T1, Human TRPC6 (Homo sapiens, UniProt Q9Y210).
T1 construct: expressed in transfected cells
T1 sequence (Q9Y210 1-931): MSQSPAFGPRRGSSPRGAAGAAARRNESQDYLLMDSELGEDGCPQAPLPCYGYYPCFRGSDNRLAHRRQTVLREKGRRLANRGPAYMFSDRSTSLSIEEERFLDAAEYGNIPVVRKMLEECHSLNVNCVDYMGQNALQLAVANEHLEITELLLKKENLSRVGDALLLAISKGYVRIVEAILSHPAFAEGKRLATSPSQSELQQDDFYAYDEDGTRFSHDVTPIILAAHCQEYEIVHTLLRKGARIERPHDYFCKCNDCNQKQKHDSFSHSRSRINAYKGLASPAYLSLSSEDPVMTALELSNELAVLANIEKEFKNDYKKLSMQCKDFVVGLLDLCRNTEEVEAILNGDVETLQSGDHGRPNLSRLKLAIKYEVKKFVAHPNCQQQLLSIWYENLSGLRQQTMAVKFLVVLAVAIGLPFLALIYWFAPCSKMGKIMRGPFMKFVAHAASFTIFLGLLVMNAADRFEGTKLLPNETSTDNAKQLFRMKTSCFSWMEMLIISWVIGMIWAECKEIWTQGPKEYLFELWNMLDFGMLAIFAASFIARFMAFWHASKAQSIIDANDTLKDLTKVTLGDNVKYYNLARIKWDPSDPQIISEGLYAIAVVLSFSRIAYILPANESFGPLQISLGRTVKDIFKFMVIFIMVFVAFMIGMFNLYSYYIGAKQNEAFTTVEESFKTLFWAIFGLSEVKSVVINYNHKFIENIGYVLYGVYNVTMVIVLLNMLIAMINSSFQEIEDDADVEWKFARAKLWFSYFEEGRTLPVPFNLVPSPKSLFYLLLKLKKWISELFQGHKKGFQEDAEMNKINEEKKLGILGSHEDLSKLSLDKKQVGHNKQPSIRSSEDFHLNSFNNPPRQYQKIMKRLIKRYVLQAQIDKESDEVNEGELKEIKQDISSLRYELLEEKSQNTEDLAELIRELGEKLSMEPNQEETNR
Kind of assay: Evaluation of TRPC6 channel inhibitory activity (1), FLIPR Calcium 5 Assay Kit, OAG stimulation (Compound Nos. 1-1293). Format: cell-based. To be noted: Human TRPC6 stably-expressing cells, OAG 30 μM, FLIPR Calcium 5 Assay Kit; read-out: Inhibitory activity (pIC50 class) (converted). A digest of the protocol:
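Readout is pIC50 from four-parameter logistic fitting of inhibition of the OAG-evoked (30 μM final) fluorescence calcium signal. Human TRPC6 stable cells are dye-loaded with probenecid, and compound is applied 20 min ahead of agonist.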
Turning to `Cc1cc(Oc2cc(C#N)ccc2-c2cnc(CN)s2)cc(N2CCOCC2)n1` [compound 607, 4-[2-(aminomethyl)-1,3-thiazol-5-yl]-3-(2-methyl-6-morpholin-4-ylpyridin-4-yl)oxybenzonitrile], the IC50 was more than 1000 nM.

Consider `Cc1nc(Oc2cc(C#N)ccc2-c2ncc(CCN)cn2)cc(-c2ccccc2)n1` [Compound 275, 4-[5-(2-aminoethyl)pyrimidin-2-yl]-3-(2-methyl-6-phenylpyrimidin-4-yl)oxybenzonitrile], for which the IC50 was less than 10 nM.

Turning to `Cc1cc(Oc2cc(C#N)ccc2-c2ccc(C(C)(C)N)cn2)cc(N2CCOCC2)n1` [compound 397, 4-[5-(2-aminopropan-2-yl)pyridin-2-yl]-3-(2-methyl-6-morpholin-4-ylpyridin-4-yl)oxybenzonitrile], the IC50 is 10 to 1000 nM.

As for `Cn1nc(C2CC2)cc1Oc1cc(C#N)ccc1-c1ccc(C2CNCCO2)cn1` (centres unmarked) [compound 427, 3-(5-cyclopropyl-2-methylpyrazol-3-yl)oxy-4-(5-morpholin-2-ylpyridin-2-yl)benzonitrile], the IC50 is 10 to 1000 nM.

In the case of `CC(C)(C)n1nc(C2CC2)cc1Oc1cc(C#N)ccc1-c1ncc(CCN)cn1` [compound 369, 4-[5-(2-aminoethyl)pyrimidin-2-yl]-3-(2-tert-butyl-5-cyclopropylpyrazol-3-yl)oxybenzonitrile], the IC50 is 10 to 1000 nM.

As for `COC(C)c1cn(Cc2cc(C#N)ccc2-c2ncc(CCN)cn2)c(C)n1` (centres unmarked) [compound 1141, 4-[5-(2-aminoethyl)pyrimidin-2-yl]-3-[[4-(1-methoxyethyl)-2-methylimidazol-1-yl]methyl]benzonitrile], the IC50 is 10 to 1000 nM.

As for `Cc1nc(Oc2cc(C#N)ccc2-c2csc(C(O)CN)n2)cc(-c2ccccc2)n1` (centres unmarked) [Compound 195, 4-[2-(2-amino-1-hydroxyethyl)-1,3-thiazol-4-yl]-3-(2-methyl-6-phenylpyrimidin-4-yl)oxybenzonitrile], the IC50 was 10 to 1000 nM.

`Cc1nc(Oc2cc(C#N)ccc2-c2ncc(CN)cn2)cc(O[C@@H]2CCOC2)n1` [compound 844, 4-[5-(aminomethyl)pyrimidin-2-yl]-3-[2-methyl-6-[(3R)-oxolan-3-yl]oxypyrimidin-4-yl]oxybenzonitrile]: the IC50 was more than 1000 nM.

On to `Cc1nc(Oc2cc(C#N)ccc2-c2ccc(CC3(N)COC3)cn2)cc(N2CCC[C@H]2C#N)n1` [compound 673, (2S)-1-[6-[2-[5-[(3-aminooxetan-3-yl)methyl]pyridin-2-yl]-5-cyanophenoxy]-2-methylpyrimidin-4-yl]pyrrolidine-2-carbonitrile], for which the IC50 is more than 1000 nM.

With `N#Cc1ccc(-c2ccc(CCN)cc2)c(Oc2cnnc(N3CCCC3)c2)c1` [Compound 65, 4-[4-(2-aminoethyl)phenyl]-3-(6-pyrrolidin-1-ylpyridazin-4-yl)oxybenzonitrile], the IC50 was less than 10 nM.

`Cc1nc(N2CCOCC2)sc1C(=O)c1cc(C#N)ccc1-c1ccc(CCN)cn1` [compound 1076, 4-[5-(2-aminoethyl)pyridin-2-yl]-3-(4-methyl-2-morpholin-4-yl-1,3-thiazole-5-carbonyl)benzonitrile]: the IC50 is less than 10 nM.

Take `Cc1nn(C(C)C)cc1Oc1cc(F)ccc1-c1ncc(CCN)cn1` [compound 983, 2-[2-[4-fluoro-2-(3-methyl-1-propan-2-ylpyrazol-4-yl)oxyphenyl]pyrimidin-5-yl]ethanamine]: the IC50 was less than 10 nM.

With `CCN(CC)c1cc(Oc2cc(F)ccc2-c2ccc(CCN)cn2)n(C)n1` [compound 991, 5-[2-[5-(2-aminoethyl)pyridin-2-yl]-5-fluorophenoxy]-N,N-diethyl-1-methylpyrazole-3-amine], the IC50 was less than 10 nM.

In the case of `N#Cc1ccc(-n2ccc(C(O)CN)n2)c(Oc2cnnc(-c3ccc[nH]3)c2)c1` (centres unmarked) [Compound 196, 4-[3-(2-amino-1-hydroxyethyl)pyrazol-1-yl]-3-[6-(1H-pyrrol-2-yl)pyridazin-4-yl]oxybenzonitrile], the IC50 is 10 to 1000 nM.

With `Cn1nc(C2CC2)cc1Oc1cc(F)ccc1-c1ccc(CCN)cn1` [compound 1018, 2-[6-[2-(5-cyclopropyl-2-methylpyrazol-3-yl)oxy-4-fluorophenyl]pyridin-3-yl]ethanamine], the IC50 is less than 10 nM.

Consider `Cc1nc(Oc2cc(C#N)ccc2-c2ccc(CCN)cc2)cc(OC2CCCC2)n1` [Compound 45, 4-[4-(2-aminoethyl)phenyl]-3-(6-cyclopentyloxy-2-methylpyrimidin-4-yl)oxybenzonitrile], for which the IC50 was 10 to 1000 nM.

Turning to `Cc1cc(Oc2cc(C#N)ccc2-c2ccc(OC3CNC3)cn2)cc(N2CCOCC2)n1` [compound 564, 4-[5-(azetidin-3-yloxy)pyridin-2-yl]-3-(2-methyl-6-morpholin-4-ylpyridin-4-yl)oxybenzonitrile], the IC50 was 10 to 1000 nM.

`N#Cc1ccc(-c2ccc(CCN)cc2)c(Oc2sc(N3CCCCC3)nc2C(F)(F)F)c1` [compound 785, 4-[4-(2-aminoethyl)phenyl]-3-[[2-piperidin-1-yl-4(trifluoromethyl)-1,3-thiazol-5-yl]oxy]benzonitrile]: the IC50 was 10 to 1000 nM.

As to `CN(CC(F)F)c1cc(Oc2cc(C#N)ccc2-c2ncc(CN)cn2)n(C)n1` [compound 873, 4-[5-(aminomethyl)pyrimidin-2-yl]-3-[5-[2,2-difluoroethyl(methyl)amino]-2-methylpyrazol-3-yl]oxybenzonitrile], the IC50 was less than 10 nM.

Regarding `Cc1c(Oc2cc(C#N)ccc2-c2ncc(CN)cn2)cnn1-c1ccccn1` [compound 831, 4-[5-(aminomethyl)pyrimidin-2-yl]-3-(5-methyl-1-pyridin-2-ylpyrazol-4-yl)oxybenzonitrile], the IC50 was more than 1000 nM.

In the case of `Cn1nc(C2CC2)cc1Oc1cc(C#N)ccc1-c1ccc(C[C@H](N)C(=O)O)cn1` [compound 612, (2S)-2-amino-3-[6-[4-cyano-2-(5-cyclopropyl-2-methylpyrazol-3-yl)oxyphenyl]pyridin-3-yl]propanoic acid], the IC50 was more than 1000 nM.

On to `Cc1nc(Oc2cc(C#N)ccc2-c2cccc(CCN)c2)cc(N2CCOCC2)n1` [Compound 194, 4-[3-(2-aminoethyl)phenyl]-3-(2-methyl-6-morpholin-4-ylpyrimidin-4-yl)oxybenzonitrile], for which the IC50 was more than 1000 nM.

With `Cn1nc(C2CC2)cc1Oc1cc(C#N)ccc1-c1ccc(CC(C)(C)N)cn1` [compound 334, 4-[5-(2-amino-2-methylpropyl)pyridin-2-yl]-3-(5-cyclopropyl-2-methylpyrazol-3-yl)oxybenzonitrile], the IC50 is less than 10 nM.

Regarding `Cc1cc(Oc2cc(C#N)ccc2-c2ncc([C@H](O)CN)cn2)cc(N2CCO[C@@H](C)C2)n1` [compound 530, 4-[5-[(1S)-2-amino-1-hydroxyethyl]pyrimidin-2-yl]-3-[2-methyl-6-[(2S)-2-methylmorpholin-4-yl]pyridin-4-yl]oxybenzonitrile], the IC50 is less than 10 nM.

As for `N#Cc1ccc(-c2ncc(CCN)cn2)c(Oc2ccc(N3CCCC3)nc2)c1` [compound 750, 4-[5-(2-aminoethyl)pyrimidin-2-yl]-3-(6-pyrrolidin-1-ylpyridin-3-yl)oxybenzonitrile], the IC50 was 10 to 1000 nM.

Take `Cc1nc(Oc2cc(C#N)ccc2-c2ccc3c(c2)CC(N)C3O)cc(N2CCOCC2)n1` (centres unmarked) [Compound 134, 4-(2-amino-1-hydroxy-2,3-dihydro-1H-inden-5-yl)-3-(2-methyl-6-morpholin-4-ylpyrimidin-4-yl)oxybenzonitrile]: the IC50 is 10 to 1000 nM.

Regarding `Cc1nc(Oc2cc(C#N)ccc2-c2ccc(C(O)CN)c(C(F)(F)F)c2)cc(N2CCOCC2)n1` (centres unmarked) [Compound 151, 4-[4-(2-amino-1-hydroxyethyl)-3-(trifluoromethyl)phenyl]-3-(2-methyl-6-morpholin-4-ylpyrimidin-4-yl)oxybenzonitrile], the IC50 was 10 to 1000 nM.

`Cc1nc(Oc2cc(C#N)ccc2-c2nc(C(O)CN(C)C)c(C)n2C)cc(-c2ccccc2)n1` (centres unmarked) [Compound 99, 4-[4-[2-(dimethylamino)-1-hydroxyethyl]-1,5-dimethylimidazol-2-yl]-3-(2-methyl-6-phenylpyrimidin-4-yl)oxybenzonitrile]: the IC50 was more than 1000 nM.

`N#Cc1ccc(-c2ncc(CN)cn2)c(Oc2cnnc(N3CCOCC3)c2)c1` [compound 534, 4-[5-(aminomethyl)pyrimidin-2-yl]-3-(6-morpholin-4-ylpyridazin-4-yl)oxybenzonitrile]: the IC50 is 10 to 1000 nM.
